Reference: patent US20040084867A1, “Individualization of therapy with anticoagulants” (Xanthus Life Sciences, Inc., priority 2002, published 2004)
Where two headings read alike, the source gives them in different places. Marks after values point to notes of the source that are not given here.

Legend:
[1] = test system: AAMU-Ab; assay: Competitive antigen ELISA, cross-reactivity of AAMU-Ab; format: binding, rabbit; conditions: 0 = absence of inhibition or inhibition no higher than 40% at highest concentration tested (5 × 10^−6 M)
Procedure: (§1) Buffers and water without additives are filtered through millipore filters and kept for 1 week. BSA, antibodies, Tween™ 20 and horse radish peroxidase conjugates are added to these buffers and water just prior to use. Urine samples are usually collected 4 hours after drinking a cup of coffee (instant or brewed with approximately 100 mg of caffeine per cup) and stored at −80° C. The urine samples are diluted 10 times with sodium phosphate buffer (620 mosm, pH 7.50) and are subsequently diluted with water to give- concentrations of AAMU and 1X no higher than 3×10^−6 M in the ELISA. All the pipettings are done with an eight-channel pipette, except those of the antibody and sample solutions. Starting with the last well, 100 μL of a carbonate buffer (100 mM, pH 9.6) containing 2.5 μg mL^−1 antibodies are added to each well. After 90 min. at room temperature, the wells are washed three times with […] of TPB: isotonic sodium phosphate buffer (310 mosm, pH 7.50) containing 0.05% Tween™ 20.
(§2) After the initial wash, unoccupied sites are blocked by incubation for 90 min. at room temperature with 100 μL TBP containing 3% BSA. The wells are washed four times with 100 μL TPB. […] The microplate is gently shaken with an orbital shaker at room temperature for 3-4 hours. The wells are washed three times with 100 μL TPB containing 1% BSA and three times with water containing 0.05% Tween™ 20. To the washed plate is added 150 μL of a substrate buffer composed of citric acid (25 mM) and sodium phosphate dibasic buffer (50 mM, pH 5.0) containing 0.06% hydrogen peroxide and 0.04% o-phenylenediamine hydrochloride.
(§3) Buffers and water without additives were filtered through millipore filters and kept for 1 week. BSA, antibodies, Tween™ 20 and horse radish peroxidase conjugates were added to these buffers and water just prior to use. Urine samples were usually collected 4 hours after drinking a cup of coffee (instant or brewed with approximately 100 mg of caffeine per cup) and stored at −80° C. They were diluted 10 times with sodium phosphate buffer (620 mosm, pH 7.50) and were subsequently diluted with water to give concentrations of AAMU and 1X no higher than 3×10^−6 M in the ELISA. All the pipettings were done with an eight-channel pipette, except those of the antibody and sample solutions. Starting with the last well, 100 μL of a carbonate buffer (100 mM, pH 9.6) containing 2.5 μg mL^−1 antibodies was pipetted. After 90 min. at room temperature, the wells were washed three times with 100 μL of TPB: isotonic sodium phosphate buffer (310 mosm, pH 7.50) containing 0.05% Tween™ 20.
(§4) After the initial wash, unoccupied sites were blocked by incubation for 90 min. at room temperature with 100 μL TBP containing 3% BSA. The wells were washed four times with 100 μL TPB. […] The microplate was gently shaken with an orbital shaker at room temperature for 3-4 hours. The wells were washed three times with 100 μL with TPB containing 1% BSA and three times with water containing 0.05% Tween™ 20. To the washed plate was added 150 μL of a substrate buffer composed of citric acid (25 mM) and sodium phosphate dibasic buffer (50 mM, pH 5.0) containing 0.06% hydrogen peroxide and 0.04% o-phenylenediamine hydrochloride. After 20 min. at room temperature with shaking, the reaction was stopped with 50 μL of 2.5 N HCl.

[2] = test system: 1X-Ab; assay: Competitive antigen ELISA, cross-reactivity of 1X-Ab; format: binding, rabbit; conditions: for % Cross-Reaction, 1X-Ab: competitive antigen ELISA, 0 = absence of inhibition or inhibition no higher than 40% at highest concentration tested (5 × 10^−6 M); for [1X] × 10^6 (M), 1X concentration determined by ELISA: fixed 1X 3×10^−6 M
Procedure: as §1, §2, §3, §4

[3] = test system: CYP2C9; conditions: cited from earlier work

With `Cc1nc2[nH]c(=O)[nH]c(=O)c2[nH]1` [8-Methyl Xanthine] the “% Cross-Reaction, AAMU-Ab” value [1] was 0% and the “% Cross-Reaction, 1X-Ab” value [2] was 0%.

With `Cn1c(=O)[nH]c2ncn(C)c2c1=O` [1,7-Dimethyl Xanthine (Paraxanthine), 1,7-Dimethyl Xanthine] the “% Cross-Reaction, AAMU-Ab” value [1] was 0% and the “% Cross-Reaction, 1X-Ab” value [2] was 0.5%.

In the case of `CC(=O)Nc1c(N)[nH]c(=O)[nH]c1=O` [5-Acetamino-6-amino-uracil], the “% Cross-Reaction, AAMU-Ab” value [1] is reported as 0.6% and the “% Cross-Reaction, 1X-Ab” value [2] is reported as 0%.

For `Cn1c(=O)[nH]c2[nH]c(=O)n(C)c2c1=O` [1,7-Dimethyluric acid], the “% Cross-Reaction, AAMU-Ab” value [1] was 0% and the “% Cross-Reaction, 1X-Ab” value [2] was 0%.

In the case of `Cn1cnc2[nH]c(=O)[nH]c(=O)c21` [7-Methyl Xanthine], the “% Cross-Reaction, AAMU-Ab” value [1] is reported as 0% and the “% Cross-Reaction, 1X-Ab” value [2] is reported as 0%.

With `Cn1c(=O)[nH]c2[nH]c(=O)[nH]c2c1=O` [1-Methyluric acid] the “% Cross-Reaction, AAMU-Ab” value [1] was 0%, the “[1X] × 10^6 (M), 1X concentration determined by ELISA” value (from here on “[1X] × 10^6 (M), 1X concentration”) ([2]; 1U:1X ratio 0.50) was 2.75 × 10^6 (M) and the “[1X] × 10^6 (M), 1X concentration” value ([2]; 1U:1X ratio 1.00) was 3.25 × 10^6 (M). For the same compound, the “[1X] × 10^6 (M), 1X concentration” value ([2]; 1U:1X ratio 1.50) was 3.25 × 10^6 (M), the “[1X] × 10^6 (M), 1X concentration” value ([2]; 1U:1X ratio 2.00) was 3.60 × 10^6 (M) and the “apparent increase of 1X concentration” value ([2]; 1U:1X ratio 2.5) was 22%. The “[1X] × 10^6 (M), 1X concentration” value ([2]; 1U:1X ratio 2.50) was 3.65 × 10^6 (M), the “apparent increase of 1X concentration” value ([2]; 1U:1X ratio 3.0) was 32% and the “[1X] × 10^6 (M), 1X concentration” value ([2]; 1U:1X ratio 3.00) was 3.95 × 10^6 (M). The “[1X] × 10^6 (M), 1X concentration” value ([2]; 1U:1X ratio 4.00) was 4.20 × 10^6 (M), the “[1X] × 10^6 (M), 1X concentration” value ([2]; 1U:1X ratio 5.00) was 4.30 × 10^6 (M) and the “[1X] × 10^6 (M), 1X concentration” value ([2]; 1U:1X ratio 6.00) was 4.50 × 10^6 (M). The “[1X] × 10^6 (M), 1X concentration” value ([2]; 1U:1X ratio 8.00) was 4.30 × 10^6 (M) and the “% Cross-Reaction, 1X-Ab” value [2] was 11%.

In the case of `O=c1cc[nH]c(=O)[nH]1` [Uracil], the “% Cross-Reaction, AAMU-Ab” value [1] is reported as 0% and the “% Cross-Reaction, 1X-Ab” value [2] is reported as 0%.

In the case of `O=c1[nH]cnc2nc[nH]c12` [Hypoxanthine], the “% Cross-Reaction, AAMU-Ab” value [1] is reported as 0% and the “% Cross-Reaction, 1X-Ab” value [2] is reported as 0%.

With `Cn1c(=O)[nH]c(=O)c2[nH]cnc21` [3-Methyl Xanthine] the “% Cross-Reaction, AAMU-Ab” value [1] was 0% and the “% Cross-Reaction, 1X-Ab” value [2] was 0%.

For `Cn1c(=O)[nH]c2nc[nH]c2c1=O` [1-Methyl Xanthine (1X), 1-Methyl Xanthine], the “% Cross-Reaction, AAMU-Ab” value [1] was 0% and the “% Cross-Reaction, 1X-Ab” value [2] was 100%.

For `CC(=O)Nc1c(N)n(C)c(=O)n(C)c1=O` [5-Acetamino-6-amino-1,3-dimethyluracil], the “% Cross-Reaction, AAMU-Ab” value [1] was 0% and the “% Cross-Reaction, 1X-Ab” value [2] was 0%.

For `O=c1[nH]c(=O)c2[nH]c(=O)[nH]c2[nH]1` [Uric acid], the “% Cross-Reaction, AAMU-Ab” value [1] was 0% and the “% Cross-Reaction, 1X-Ab” value [2] was 0%.

For `CC(=O)Nc1c(N)n(C)c(=O)[nH]c1=O` [5-Acetamino-6-amino-1-methyluracil], the “% Cross-Reaction, AAMU-Ab” value [1] was 100% and the “% Cross-Reaction, 1X-Ab” value [2] was 0%.

In the case of `O=c1[nH]c(=O)c2[nH]cnc2[nH]1` [Xanthine], the “% Cross-Reaction, AAMU-Ab” value [1] is reported as 0^a % and the “% Cross-Reaction, 1X-Ab” value [2] is reported as 0%.

In the case of `CC(=O)C[C@@H](c1ccccc1)c1c(O)c2ccccc2oc1=O` [S-warfarin], the “↓ in CLpo,u (unbound oral clearance)” value ([3]; 47 Japanese, an individual with *3/*3) is listed as 90% ↓ in CLpo,u for (S)-warfarin in an individual and the “↓ in CLpo,u (unbound oral clearance)” value ([3]; 86 Japanese, 3 individuals with *1/*3) is listed as 63% ↓ in CLpo,u for (S)-warfarin in 3 individuals.

With `Nc1nc2nc[nH]c2c(=O)[nH]1` [Guanine] the “% Cross-Reaction, AAMU-Ab” value [1] was 0% and the “% Cross-Reaction, 1X-Ab” value [2] was 0%.

With `Cn1cnc2c1c(=O)[nH]c(=O)n2C` [3,7-Dimethyl Xanthine (Theobromine), 3,7-Dimethyl Xanthine] the “% Cross-Reaction, AAMU-Ab” value [1] was 0% and the “% Cross-Reaction, 1X-Ab” value [2] was 0%.

For `Cn1c(=O)c2[nH]cnc2n(C)c1=O` [1,3-Dimethyl Xanthine (Theophylline), 1,3-Dimethyl Xanthine], the “% Cross-Reaction, AAMU-Ab” value [1] was 0% and the “% Cross-Reaction, 1X-Ab” value [2] was 0.2%.

For `Cn1c(=O)c2c(ncn2C)n(C)c1=O` [1,3,7-Trimethyl Xanthine (Caffeine), 1,3,7-Trimethyl Xanthine], the “% Cross-Reaction, AAMU-Ab” value [1] was 0% and the “% Cross-Reaction, 1X-Ab” value [2] was 0%.
